Target: T1, NR2F6 (Homo sapiens, UniProt P10588)
T1 construct: expressed in transfected cells; also transient transfection
T1 sequence (P10588 1-404): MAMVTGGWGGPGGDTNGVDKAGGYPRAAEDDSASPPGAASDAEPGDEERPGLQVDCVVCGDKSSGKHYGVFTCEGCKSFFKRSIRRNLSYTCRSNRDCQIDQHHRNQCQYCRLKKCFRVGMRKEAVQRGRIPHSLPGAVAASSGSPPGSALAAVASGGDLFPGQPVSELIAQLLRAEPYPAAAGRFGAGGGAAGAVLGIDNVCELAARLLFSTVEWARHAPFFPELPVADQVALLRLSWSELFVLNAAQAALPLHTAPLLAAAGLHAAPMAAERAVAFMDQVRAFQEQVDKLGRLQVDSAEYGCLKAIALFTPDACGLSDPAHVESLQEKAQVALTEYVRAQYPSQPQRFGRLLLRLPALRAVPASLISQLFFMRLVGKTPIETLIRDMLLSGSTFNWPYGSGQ
Assay: NR2F6 agonist screening, Firefly signal cmpd/DMSO
Format: cell-based
Conditions: for Firefly/Renilla (NR2F6 stable, clone F4): ratio Firefly/Renilla; for Firefly, NR2F6 stable (clone F4)/pGL4: ratio of Firefly in NR2F6 stable clone F4 to pGL4

[1] = C11 analogs follow set (Tables 2-10)

SMILES | Firefly, cmpd/DMSO repeat 1 [1] | Firefly, cmpd/DMSO repeat 2 [1] | Firefly/Renilla (NR2F6 stable, clone F4) (Table 12) | Firefly, NR2F6 stable (clone F4)/pGL4 (Table 12) | Firefly, cmpd/DMSO repeat 1 (Table 12) | Firefly, cmpd/DMSO repeat 2 (Table 12) | Firefly/Renilla (NR2F6 stable, clone F4) (Table 13) | Firefly, NR2F6 stable (clone F4)/pGL4 (Table 13) | Firefly, cmpd/DMSO repeat 1 (Table 13) | Firefly, cmpd/DMSO repeat 2 (Table 13)
COC(=O)c1ccc2oc(=O)c(S(=O)(=O)c3ccc(OC)cc3)cc2c1 [Compound C12] | 20.0 | 16.7 | 2.6 | 6.6 | 20.0 | 16.7 | – | – | – | –
COC(=O)c1ccc2oc(=O)c(S(=O)(=O)c3ccc(C)cc3)cc2c1 [Compound C13] | 14.0 | 12.9 | 1.8 | 4.2 | 14.0 | 12.9 | – | – | – | –
COC(=O)c1ccc2oc(=O)c(S(=O)(=O)c3ccc(F)cc3)cc2c1 [Compound C14] | 22.3 | 20.0 | – | – | – | – | 1.5 | 7.6 | 22.3 | 20.0
COC(=O)c1ccc2oc(=O)c(S(=O)(=O)c3ccc(Cl)cc3)cc2c1 [Compound C15] | 0.9 | 1.7 | – | – | – | – | – | – | – | –
Cc1ccc(S(=O)(=O)c2cc3ccccc3oc2=O)cc1 [Compound C100] | 2.0 | 1.9 | – | – | – | – | – | – | – | –
COc1ccc(S(=O)(=O)c2cc3ccccc3oc2=O)cc1 [Compound C101] | 4.5 | 4.7 | 2.4 | 3.6 | 4.5 | 4.7 | – | – | – | –
O=c1oc2ccccc2cc1S(=O)(=O)c1ccc(Br)cc1 [Compound C102] | 13.0 | 15.3 | 2.4 | 5.9 | 13.0 | 15.3 | – | – | – | –
CC(C)(C)c1ccc(S(=O)(=O)c2cc3ccccc3oc2=O)cc1 [Compound C103] | 2.8 | 1.4 | – | – | – | – | – | – | – | –
Cc1ccc(S(=O)(=O)c2cc3ccccc3oc2=O)cc1C [Compound C104] | 3.1 | 4.4 | – | – | – | – | – | – | – | –
O=c1oc2ccccc2cc1S(=O)(=O)c1ccc(Cl)cc1 [Compound C105] | 5.7 | 4.8 | – | – | – | – | 2.6 | 3.1 | 5.7 | 4.8
O=c1oc2ccccc2cc1S(=O)(=O)c1ccc(Cl)c(Cl)c1 [Compound C106] | 1.4 | 1.3 | – | – | – | – | – | – | – | –
O=c1oc2ccccc2cc1S(=O)(=O)c1ccc(F)c(Cl)c1 [Compound C107] | 11.0 | 11.0 | – | – | – | – | 1.4 | 5.8 | 11.0 | 11.0
O=c1oc2ccccc2cc1S(=O)(=O)c1ccccc1F [Compound C108] | 7.9 | 7.3 | 2.6 | 5.5 | 7.9 | 7.3 | – | – | – | –
